Measured values taken from patent US20180228158A1, “COMPOSITIONS AND METHODS FOR CONTROL OF DISEASE” (Monsanto Technology LLC, priority 2017, published 2018).

Experiments:
[1] = tested on: soybean cyst nematode (SCN); test: Field trial: counts of soybean cyst nematode (SCN) eggs; assay type: in vivo; conditions: for Fall Eggs/100 cc: SCN egg count in fall; for Spring Eggs/100 cc: SCN egg count in spring; for Mean RF: SCN eggs
Description: (§1) A field trial was conducted to determine the efficacy of compounds as described herein against soybean sudden death syndrome. Soybean seeds were planted at the start of the spring growing season in a location where fungi of the genus Fusarium were endemic. Nothing special was done to encourage growth of the fungus or development of the SDS disease.
(§2) Compounds listed in Table 1 below were used to treat soybean seeds prior to planting.
(§3) Seeds treated with oxamyl, at a rate of 1 mg per seed, and non-treated seeds (NT) were included as controls.
(§4) Other typical agronomic data, including counts of soybean cyst nematode (SCN) eggs, were also collected throughout the trial. The percentage of affected plants and the observed SDS disease severity are graphically depicted in FIGS. 1 and 2, respectively.

[2] = tested on: soybean sudden death syndrome (fungi of the genus Fusarium); test: Field trial against soybean sudden death syndrome (seed treatment); assay type: in vivo, Fusarium virguliforme; design: key to SDS incidence: % of affected plants; SDS severity: scale not given here; conditions: for SDS severity: average severity of symptoms in the plots at harvest time; for SDS incidence: percentage of affected plants at harvest time in the fall
Description: as §1, §2, §3, §4

[3] = soybean seed treatment 0.5 mg/seed
[4] = soybean seed treatment 1 mg/seed

For c1ccc(-c2noc(-c3cccs3)n2)cc1 [DC1822], the “Fall Eggs/100 cc” value [1, 3] was 2600 eggs/100 cc, the “Spring Eggs/100 cc” value [1, 3] was 1175 eggs/100 cc and the “Mean RF” value [1, 3] was 3.875. The “Fall Eggs/100 cc” value [1, 4] was 2100 eggs/100 cc, the “Spring Eggs/100 cc” value [1, 4] was 700 eggs/100 cc and the “Mean RF” value [1, 4] was 6.425. It also gave an SDS severity [2, 3] of 2, an SDS incidence [2, 3] of 45 and an SDS severity [2, 4] of 1.5. The SDS incidence [2, 4] was 28.75.
With Clc1ccc(-c2noc(-c3ccco3)n2)cc1 [DC5523] the “Fall Eggs/100 cc” value [1, 3] was 1925 eggs/100 cc, the “Spring Eggs/100 cc” value [1, 3] was 675 eggs/100 cc and the “Mean RF” value [1, 3] was 5.35. For the same compound, the “Fall Eggs/100 cc” value [1, 4] was 1725 eggs/100 cc, the “Spring Eggs/100 cc” value [1, 4] was 800 eggs/100 cc and the “Mean RF” value [1, 4] was 4.325. The SDS severity [2, 3] was 2, the SDS incidence [2, 3] was 47.5 and the SDS severity [2, 4] was 2. It also gave an SDS incidence [2, 4] of 26.25.
For Cc1cc(Cl)ccc1-c1noc(-c2ccco2)n1 [DC5823], the “Fall Eggs/100 cc” value [1, 3] was 3325 eggs/100 cc, the “Spring Eggs/100 cc” value [1, 3] was 1075 eggs/100 cc and the “Mean RF” value [1, 3] was 3.35. For the same compound, the “Fall Eggs/100 cc” value [1, 4] was 1100 eggs/100 cc, the “Spring Eggs/100 cc” value [1, 4] was 1450 eggs/100 cc and the “Mean RF” value [1, 4] was 1.625. The SDS severity [2, 3] was 2.25, the SDS incidence [2, 3] was 55 and the SDS severity [2, 4] was 2.5. For the same compound, the SDS incidence [2, 4] was 46.25.
With CNC(=O)O/N=C(\SC)C(=O)N(C)C [Oxamyl, oxamyl, reference compound] the “Fall Eggs/100 cc” value [1, 4] was 3075 eggs/100 cc, the “Spring Eggs/100 cc” value [1, 4] was 1050 eggs/100 cc and the “Mean RF” value [1, 4] was 6.65. It also gave an SDS severity [2, 4] of 1.5 and an SDS incidence [2, 4] of 32.5.
